Reference: PubChem BioAssay (NCI)
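1) Cells in 96-well plates. 2) Compound, 48 h, 5 concentrations. 3) Linear interpolation between surrounding doses. 4) Unreached endpoint = highest concentration. Definition used: TGI = concentration required for complete inhibition of growth.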

What was measured:
Test in all cases: DTP human tumour cell line panel, 48 h
786-0 renal = system: 786-0 renal
A498 renal = system: A498 renal
A549 NSCLC = system: A549 NSCLC
ACHN renal = system: ACHN renal
BT-549 breast = system: BT-549 breast
CAKI-1 renal = system: CAKI-1 renal
CCRF-CEM leukemia = system: CCRF-CEM leukemia
COLO 205 colon = system: COLO 205 colon
DU-145 prostate = system: DU-145 prostate
EKVX NSCLC = system: EKVX NSCLC
HCC-2998 colon = system: HCC-2998 colon
HCT-116 colon = system: HCT-116 colon
HL-60(TB) leukemia = system: HL-60(TB) leukemia
HOP-62 NSCLC = system: HOP-62 NSCLC
HOP-92 NSCLC = system: HOP-92 NSCLC
HS 578T breast = system: HS 578T breast
HT29 colon = system: HT29 colon
IGROV1 ovarian = system: IGROV1 ovarian
K-562 leukemia = system: K-562 leukemia
KM12 colon = system: KM12 colon
LOX IMVI melanoma = system: LOX IMVI melanoma
M14 melanoma = system: M14 melanoma
MALME-3M melanoma = system: MALME-3M melanoma
MCF7 breast = system: MCF7 breast
MDA-MB-231 breast = system: MDA-MB-231 breast
MDA-MB-435 = system: MDA-MB-435
MDA-N = system: MDA-N
MOLT-4 leukemia = system: MOLT-4 leukemia
NCI-H226 lung = system: NCI-H226 lung
NCI-H23 lung = system: NCI-H23 lung
NCI-H460 lung = system: NCI-H460 lung
NCI-H522 lung = system: NCI-H522 lung
NCI/ADR-RES ovarian = system: NCI/ADR-RES ovarian
OVCAR-3 ovarian = system: OVCAR-3 ovarian
OVCAR-4 ovarian = system: OVCAR-4 ovarian
OVCAR-5 ovarian = system: OVCAR-5 ovarian
OVCAR-8 ovarian = system: OVCAR-8 ovarian
PC-3 prostate = system: PC-3 prostate
RPMI-8226 leukemia = system: RPMI-8226 leukemia
RXF 393 renal = system: RXF 393 renal
SF-268 CNS = system: SF-268 CNS
SF-295 CNS = system: SF-295 CNS
SF-539 CNS = system: SF-539 CNS
SK-MEL-2 melanoma = system: SK-MEL-2 melanoma
SK-MEL-28 melanoma = system: SK-MEL-28 melanoma
SK-MEL-5 melanoma = system: SK-MEL-5 melanoma
SN12C renal = system: SN12C renal
SNB-19 CNS = system: SNB-19 CNS
SNB-75 CNS = system: SNB-75 CNS
SR leukemia = system: SR leukemia
SW-620 colon = system: SW-620 colon
T-47D breast = system: T-47D breast
TK-10 renal = system: TK-10 renal
U251 CNS = system: U251 CNS
UACC-257 melanoma = system: UACC-257 melanoma
UACC-62 melanoma = system: UACC-62 melanoma
UO-31 renal = system: UO-31 renal
HCT-15 colon = system: HCT-15 colon

Measured: TGI

NS(=O)(=O)c1c(O)c2ccccc2oc1=O
not listed: HCT-15 colon
> 100 µM: all other assays above

Clc1ccc(C(OCn2ccnc2)c2nc3ccccc3[nH]2)c(Cl)c1 (configuration not stated)
10.1 µM: HOP-92 NSCLC
92.1 µM: UO-31 renal
81.7 µM: BT-549 breast
92.4 µM: RPMI-8226 leukemia
35.2 µM: SK-MEL-5 melanoma
not listed: NCI-H226 lung | RXF 393 renal | SR leukemia
> 100 µM: all other assays above
